Assay results reported in patent US20130052172A1, “METHODS FOR DIAGNOSING AND TREATING CARDIAC DEFECTS” (priority 2011, published 2013).

Tests used:
[1] = Blood levels of orally administered antibiotics; format: in vivo, rat; details: antibiotic given in drinking water; detection limit of assay 1 μM
Excerpt: Dahl S rats are an established model of increased susceptibility to injury from myocardial ischemia/reperfusion (Baker, J. et al. “Resistance to myocardial ischemia in five rat strains: is there a genetic component of cardioprotection?” Am. J. Physiol. Heart Circ. Physiol. 278, H1395-H1400, 2000, Shi, Y. et al. “Increased resistance to myocardial ischemia in the Brown Norway vs. Dahl S rat: role of nitric oxide synthase and Hsp90.” J. Mol. Cell. Cardiol. 38(4):625-635, 2005). […] A minimum treatment time of 48 h with vancomycin was needed to decrease IS. A return to control values for myocardial IS at 72 h following discontinuation of vancomycin was observed (FIG. 5). To determine whether this decrease in IS was a direct effect of antibiotic present in the coronary vasculature, blood levels of vancomycin were measured. The concentration of vancomycin in blood was below detection limits of the assay used (1 μM). […]
Infarct size was measured in rats treated with the antibiotic mixture using the method described in example 3. […] To determine whether the decrease in infarct size was a direct effect of antibiotics present in the coronary vasculature, blood levels of streptomycin, neomycin, bacitracin and polymyxin B were measured. […]

Dahl S rats = experiment: In vivo regional myocardial ischemia/reperfusion, infarct size (IS/AAR); set-up: species or system rat
Excerpt: An anesthetized rat model was used for in vivo ischemia/reperfusion studies using the general surgical protocol and determination of infarct size (IS) described in “K(ATP) opener-induced delayed cardioprotection: involvement of sarcolemmal and mitochondrial K(ATP) channels, free radicals and MEK½” (Gross, E. et al., J. Mol. Cell. Cardiol. 35, 985-992, 2003), the entirety of which is incorporated herein by reference. Briefly, following anesthesia, a tracheotomy for artificial ventilation was performed, with the left common carotid artery cannulated for blood pressure and heart rate measurements. A thoracotomy was performed at the fifth intercostal space, the pericardium was excised, and a silk ligature was placed distal to the left atrial appendage that spanned to the sternal portion of the left ventricle, which included the left anterior descending coronary artery. Occlusion of the area described [area at risk (AAR)] was created by placing ends of the ligature through a polypropylene tube and fixing the snare to the epicardial surface with a hemostat. After 30 min, the hemostat was released to reperfuse the AAR. Following 2 h of reperfusion, the ligature was again occluded, and the AAR was determined by patent-blue negative staining. The heart was then excised, cross-sectioned into 4 to 5 slices, and separated into normal zone and AAR. Pieces were incubated in 1% 2,3,5-triphenyltetrazolium chloride to determine IS. The heart was then incubated overnight in 10% formaldehyde, and infarcted tissue was dissected from the AAR. IS was expressed as a percentage of the AAR (IS/AAR). Leptin (0.12 μg/kg) was administered intravenously as a bolus at 24 and 12 h before ischemia. Amino acids were administered intravenously as a bolus at 24 and 12 hours before ischemia or dissolved in the drinking water and given 48 hours before ischemia.

[2] = test system: metabolites known to be modified by intestinal microbiota; experiment: Metabolomic mass spec analysis of blood metabolites; format: in vivo, rat; details: rats treated for 7 days
Excerpt: In this example, methods for assaying metabolite levels using mass spectrometry are described. Each sample received was accessioned into the Metabolon Laboratory Information Management System (LIMS) and was assigned by the LIMS a unique identifier, which was associated with the original source identifier only. This identifier was used to track all sample handling, tasks, results etc. The samples (and all derived aliquots) were bar-coded and tracked by the LIMS system. All portions of any sample were automatically assigned their own unique identifiers by the LIMS when a new task was created; the relationship of these samples was also tracked. All samples were maintained at −80° C. until processed.
The sample preparation process was carried out using the automated MicroLab STAR® system from Hamilton Company. Recovery standards were added prior to the first step in the extraction process for Quality Control (QC) purposes. […]
The LC/MS portion of the platform was based on a Waters ACQUITY UPLC and a Thermo-Finnigan LTQ mass spectrometer, which consisted of an electrospray ionization (ESI) source and linear ion-trap (LIT) mass analyzer. […] One aliquot was analyzed using acidic positive ion optimized conditions and the other using basic negative ion optimized conditions in two independent injections using separate dedicated columns. […]

For `CN[C@H](CC(C)C)C(=O)N[C@H]1C(=O)N[C@@H](CC(N)=O)C(=O)N[C@H]2C(=O)N[C@H]3C(=O)N[C@H](C(=O)N[C@H](C(=O)O)c4cc(O)cc(O)c4-c4cc3ccc4O)[C@H](O)c3ccc(c(Cl)c3)Oc3cc2cc(c3O[C@@H]2O[C@H](CO)[C@@H](O)[C@H](O)[C@H]2O[C@H]2C[C@](C)(N)[C@H](O)[C@H](C)O2)Oc2ccc(cc2Cl)[C@H]1O` [vancomycin, Vancomycin], the concentration in blood [1] was < 1000 nM, the “reduction in myocardial IS” value (Dahl S rats; Dahl S rats, antibiotic in drinking water 7 d, in vivo regional ischemia/reperfusion) was ~27% and the “effect on infarct size in vivo” value (Dahl S rats; antibiotic added to the drinking water) was “reduced infarct size (IS) in vivo”. For the same compound, the “decrease in infarct size” value (Dahl S rats; vancomycin 15 mg/kg/day for 72 hours, thrombopoietin i.v. 15 minutes prior to ischemia) was 28%, the “metabolites of tryptophan, phenylalanine and tyrosine in blood” value [2] was “decreased metabolites known to be modified by intestinal microbiota” and the phenyllactate in blood [2] was “increased”.
